Source: publication PMC9077138, “An investigation on 3-acetyl-7-methoxy-coumarin Schiff bases and their Ru(II) metallates with potent antiproliferative activity and enhanced LDH and NO release” (RSC Advances, 2018)

Assays:
P. aeruginosa = test: In vitro antibacterial assay (zone of inhibition, MIC); assay type: cell-based, Pseudomonas aeruginosa; settings: Pseudomonas aeruginosa
Protocol: (§1) The free ligands and their cyclometallated ruthenium(II) carbonyl complexes were screened for their in vitro antimicrobial activity against certain pathogenic bacterial and fungal species at three different concentrations using disc diffusion method.
(§2) Antimicrobial activities of [RuHClCO(PPh3)3], ligands H2L^1–4 and new organometallic Ru(II) complexes (1–4) were evaluated by agar well diffusion method[76] as reported, by taking Staphylococcus aureus, Streptococcus pneumonie, Pseudomonas aeruginosa, Salmonella paratyphi and fungus such as Candida albicans, Trichophyton rubrum, Aspergillus niger, Aspergillus fumigatus and Candida tropicalis. The above said all test organisms were obtained from the MTCC, Chandigarh, India and Microbiological laboratory, Coimbatore, Tamil Nadu, India. The antimicrobial activity of the test compounds was checked with various concentrations (25 μg ml^−1, 50 μg ml^−1 and 100 μg ml^−1) against all the test pathogens. Gentamicin and ketoconazole were used as positive controls to study the antibacterial and antifungal activities respectively. Each experiment was performed in triplicate and the results are represented as average zone of inhibition and minimum inhibitory concentration of all the test pathogens.

Trichophyton rubrum = test: In vitro antifungal assay (zone of inhibition, MIC); assay type: cell-based
Protocol: as §1, §2

Candida tropicalis = test: as above; assay type: cell-based
Protocol: as §1, §2

Aspergillus fumigatus = test: as above; assay type: cell-based
Protocol: as §1, §2

Aspergillus niger = test: as above; assay type: cell-based
Protocol: as §1, §2

S. paratyphi = test: In vitro antibacterial assay (zone of inhibition, MIC); assay type: cell-based, Salmonella paratyphi; settings: Salmonella enterica
From the text: The free ligands and their cyclometallated ruthenium(II) carbonyl complexes were screened for their in vitro antimicrobial activity against certain pathogenic bacterial and fungal species at three different concentrations using disc diffusion method. […] Tested complexes had better antimicrobial activity than the ligands against all pathogens. This may be explained by Tweedy's chelation theory.[61] Coordination of ligands reduce the polarity of the metal ion essentially by partial sharing of its positive charge with the donor groups within the chelate ring system formed during the coordination and leading to the increase in lipophilic nature of the central metal atom, which favours the effective permeation through the lipid layer of microorganism.[61,62] […] When tested against T. rubrum, the activity of the complexes in the order of 3 > 2 > 1 > 4. In antibacterial studies, the complex 3 was effective against S. aureus followed by complex 2, 1 and 4 and in the case of S. pneumonie the activity of the complexes follows the order of 3 > 1 > 4 > 2. […] When tested against S. paratyphi complex 1 stood out as good followed by the complexes 4, 3 and 2 respectively.
as §2

S. aureus = test: as above; assay type: cell-based, Staphylococcus aureus; settings: Staphylococcus aureus
Protocol: as §1, §2

BSA = target: T1, BSA (Bos taurus, UniProt P02769); test: BSA tryptophan fluorescence quenching; assay type: binding, bovine
T1 construct: purchased HiMedia (Mumbai, India)
From the text: The obtained results confirmed the interaction of the ligands and complexes with serum albumins. The absorption spectra of the serum albumins in the absence and presence of ligands H2L^1–4 and the complexes 1–4 are given in Fig. S29 in the ESI. ^† On adding ligands and complexes 1–4 to albumins, the absorbance intensity of serum albumins was decreased with a red shift of 2 nm. The observed changes indicated a static quenching mechanism of serum albumins by the ligands and complexes (1–4). To obtain a quantitative insight into the quenching progression, the Stern–Volmer quenching constant (KSV) and the quenching constant (Kq) were calculated from the Stern–Volmer equation using the Io/ICorrversus [Q] plot (Table 4).[53] The observed linearity in the plots (Fig. 13) indicated the ability of the compounds to quench the emission intensity of serum albumins and the order of quenching constant of the compounds is complex 3 > complex 2 > complex 1 > complex 4 > H2L^3 > H2L^2 > H2L^1 > H2L^4.
Furthermore, the equilibrium binding constant and number of binding sites were evaluated by using the Scatchard equation. The Kbin values were derived from the graph between log[(Fo − F)/F] and log[Q] From the results, we confirmed that the Ru(II) complexes having a large hydrophobic area can interact more efficiently than the ligands with serum albumins via a static pathway. The higher binding affinity of the complexes over the ligands may be due to the efficient binding of protein moiety with the complexed metal ions. Here, the binding affinities of the complexes with serum albumins followed the same order as those with DNA binding studies, complex 3 > complex 2 > complex 1 > complex 4 > H2L^3 > H2L^2 > H2L^1 > H2L^4. Variation in the binding affinity of the compounds with serum albumins depends on the electron-donating ability of the ligand, i.e. the substitution on the N-terminal nitrogen atom. The binding capability of the compounds to serum albumins increased with the increase in electron-donating ability of the substituent on the terminal nitrogen of the coordinated thiosemicarbazone ligand. The obtained quenching constant and binding constant values of these new cyclometallated ruthenium(II) complexes agree well with those reported for other ruthenium(II) complexes.[31,44,54–56] […]
Serum albumin binding study
Bovine Serum Albumin (BSA) and human serum albumin were purchased from Hi Media, The protein binding study was performed by tryptophan fluorescence quenching experiments using bovine serum albumin (BSA, 10 µM) or human serum albumin (HSA, 10 µM) as the substrate in phosphate buffer (pH= 7.2). Quenching of the emission intensity of tryptophan residues of BSA at 346 nm (excitation wavelength at 280 nm)/ HSA at 345 nm (excitation wavelength at 290 nm) was monitored using ligands and complexes as quenchers with increasing concentration (10-100µM). Synchronous fluorescence spectra of BSA or HSA with various concentrations of the complexes were obtained from 300 to 400 nm when ∆λ = 60 nm and from 290 to 500 nm when ∆λ = 15 nm. For synchronous fluorescence spectra, the same concentrations of serum albumins and the compounds were also used and the spectra were measured at two different Δλ values (difference between the excitation and emission wavelengths of BSA), such as 15 and 60 nm. Fluorescence and synchronous measurements were performed using a 1 cm quartz cell on a JASCO FP 6600 spectrofluorimeter.
The quenching data can be analyzed according to the Stern-Volmer equation, […]
Io/Icorr =K SV[Q]+1 Eq (S2) where Iₒ is the emission intensity in the absence of compound, Icorr is the corrected emission intensity in the presence of compound, KSV is the quenching constant and [Q] is the concentration of the compound.
In order to correct the inner filter effect, the following equation used Icorr = Iobs*10 (Aexc+Aem)/2 where Icorr is the corrected fluorescence value, Iobs the measured fluorescence value, Aexc is […]

T1 sequence (P02769 25-607): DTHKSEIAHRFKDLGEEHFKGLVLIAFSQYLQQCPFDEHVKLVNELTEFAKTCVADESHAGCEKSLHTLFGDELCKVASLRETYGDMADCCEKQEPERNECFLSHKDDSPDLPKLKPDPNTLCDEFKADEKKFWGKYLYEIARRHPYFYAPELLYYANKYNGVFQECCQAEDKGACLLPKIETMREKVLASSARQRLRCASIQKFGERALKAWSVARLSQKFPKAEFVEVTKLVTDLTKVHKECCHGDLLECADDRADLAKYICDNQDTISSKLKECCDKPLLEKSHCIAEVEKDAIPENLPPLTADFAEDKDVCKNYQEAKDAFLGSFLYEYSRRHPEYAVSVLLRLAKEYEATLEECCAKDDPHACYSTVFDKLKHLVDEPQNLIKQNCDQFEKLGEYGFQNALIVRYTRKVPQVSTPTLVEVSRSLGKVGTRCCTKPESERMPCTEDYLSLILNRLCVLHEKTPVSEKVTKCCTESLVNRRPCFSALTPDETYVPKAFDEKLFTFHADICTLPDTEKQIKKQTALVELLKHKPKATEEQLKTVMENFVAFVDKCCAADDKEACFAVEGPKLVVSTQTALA

Row | Compound | zone of inhibition at 50 µg/mL (P. aeruginosa) [mm] | zone of inhibition at 100 µg/mL (P. aeruginosa) [mm] | zone of inhibition at 50 µg/mL (Trichophyton rubrum) [mm] | zone of inhibition at 100 µg/mL (Trichophyton rubrum) [mm] | zone of inhibition at 50 µg/mL (Candida tropicalis) [mm] | zone of inhibition at 100 µg/mL (Candida tropicalis) [mm] | zone of inhibition at 50 µg/mL (Aspergillus fumigatus) [mm] | zone of inhibition at 100 µg/mL (Aspergillus fumigatus) [mm] | zone of inhibition at 50 µg/mL (Aspergillus niger) [mm] | zone of inhibition at 100 µg/mL (Aspergillus niger) [mm] | zone of inhibition at 50 µg/mL (S. paratyphi) [mm] | zone of inhibition at 100 µg/mL (S. paratyphi) [mm] | zone of inhibition at 50 µg/mL (S. aureus) [mm] | zone of inhibition at 100 µg/mL (S. aureus) [mm] | Kd (BSA) [µM]
1 | CCNC(=S)NN=C(C)c1cc2ccc(OC)cc2oc1=O [H2L^3, ((1E)-1-(1-(7-methoxy-2-oxo-2H-chromen-3-yl)ethylidene) 4(N)-ethylthiosemicarbazone)] | 12.5 ± 0.34 | 16.4 ± 0.23 | 13.56 ± 0.05 | 19.1 ± 0.21 | 12.3 ± 0.51 | 17.2 ± 0.51 | 12.2 ± 0.51 | 18.2 ± 0.24 | 12.6 ± 0.31 | 17.62 ± 0.12 | 12.2 ± 0.25 | 17.1 ± 0.32 | 12.3 ± 0.41 | 15.6 ± 0.65 | 70.9
2 | COc1ccc2cc(/C(C)=N\NC(=S)Nc3ccccc3)c(=O)oc2c1 [H2L^4, ((1E)-1-(1-(7-methoxy-2-oxo-2H-chromen-3-yl)ethylidene) 4(N)-phenylthiosemicarbazone)] | 12.1 ± 0.32 | 17.5 ± 0.65 | 12.4 ± 0.32 | 16.4 ± 0.66 | 12.2 ± 0.23 | 19.2 ± 0.32 | 11.3 ± 0.33 | 18.22 ± 0.14 | 12.5 ± 0.83 | 17.3 ± 0.21 | 12.2 ± 0.51 | 16.4 ± 0.51 | 15.4 ± 0.52 | 18.5 ± 0.73 | 900
3 | CNC(=S)NN=C(C)c1cc2ccc(OC)cc2oc1=O [H2L^2, ((1E)-1-(1-(7-methoxy-2-oxo-2H-chromen-3-yl)ethylidene) 4(N)-methylthiosemicarbazone)] | 12.6 ± 0.37 | 17.7 ± 0.45 | 11.3 ± 0.17 | 17.4 ± 0.51 | 11.5 ± 0.75 | 17.1 ± 0.46 | 11.8 ± 0.41 | 18.3 ± 0.22 | 12.4 ± 0.33 | 16.6 ± 0.21 | 13.43 ± 0.12 | 16.2 ± 0.57 | 12.1 ± 0.25 | 17.5 ± 0.28 | 333
